Experimental data as given in patent US12357536B2, “Containers with selective dissolved gas content” (BAXTER INTERNATIONAL INC., priority 2021, dated 2025).

Assays:
[1] = Stability of a trace element mix in glass bottle, 6 months at 5° C. or 40° C. (Table V); settings: for Concentration recovered, T6M 5° C. / Percentage of the recovered TE, T6M 5° C. / Concentration recovered, T6M 40° C. / Percentage of the recovered TE, T6M 40° C.: TE mix, pH 2.2, 200 mM malic acid, glass bottle (about 3 ppm DO), heat sterilized; for Concentration recovered, T6M 5° C. / Percentage of the recovered TE, T6M 5° C.: 6 months at 5° C.; for Percentage of the recovered TE, T6M 5° C. / Percentage of the recovered TE, T6M 40° C.: vs theoretical concentration; for Concentration recovered, T6M 40° C. / Percentage of the recovered TE, T6M 40° C.: 6 months at 40° C.
Description: The solution was heat sterilized and stored 6 months at 40° C. or 5° C.(T6M 40° C. and T6M 5° C., respectively).

[2] = Regression between Se assay and log dissolved oxygen (Example 7, FIG. 13); assay type: physicochemical; settings: fitted line Se dosage vs log oxygen content; sterilized samples stored at 40° C.
Description: The impact of oxygen seems of major importance in the stability of Selenite. […] To confirm this hypothesis, a regression test was performed between Se assay results and log(dissolved oxygen results). Only sterilized samples stored at 40° C. were considered as the sterilization and storage at high temperature seem to both increase the Se degradation.
Dissolved oxygen content is so the most impacting parameter and CQA (Critical Quality Attribute) in the stability of Selenium. As shown in the Figure, low oxygen amounts of around 0.5 ppm can be sufficient to ensure the stability of Selenite in solution, no saturation would be required.

SMILES	Percentage of the recovered TE, T6M 5° C. [1]	Percentage of the recovered TE, T6M 40° C. [1]	Concentration recovered, T6M 5° C. [1]	Concentration recovered, T6M 40° C. [1]	Stability of selenite ([1]; in the presence of few ppm of dissolved oxygen)	Oxygen amount sufficient to ensure the stability of Selenite in solution [2]
[Cr] [Cr, chromium]	77.3%	83.1%	306 ng/mL	329 ng/mL	–	–
[Cu] [Cu, copper]	81.1%	87.1%	9784 ng/mL	10504 ng/mL	–	–
[Se] [Se, selenium]	87.2%	87.7%	2446 ng/mL	2461 ng/mL	–	–
[Zn] [Zn, zinc]	77.8%	84.4%	158347 ng/mL	171822 ng/mL	–	–
O=[Se](O)O [selenite, sodium selenite]	–	–	–	–	stable	around 0.5 ppm

Further lines, with some results ahead:

Percentage of the recovered TE, T6M 5° C. [1]	Percentage of the recovered TE, T6M 40° C. [1]	SMILES	Concentration recovered, T6M 5° C. [1]	Concentration recovered, T6M 40° C. [1]	Stability of selenite ([1]; in the presence of few ppm of dissolved oxygen)	Oxygen amount sufficient to ensure the stability of Selenite in solution [2]
94%	88%	F [F, fluoride]	–	–	–	–
78.6%	84.4%	I [I, iodide]	3167 ng/mL	3401 ng/mL	–	–
79.9%	86.6%	[Mo] [Mo, molybdenum]	653 ng/mL	707 ng/mL	–	–
